Bounds are passed on as bounds.

For this assay, the target named is T1, c-Met kinase (recombinant c-Met) (Homo sapiens, UniProt P08581).
T1 construct: 0.27 nM recombinant c-Met
T1 sequence (P08581 25-1390): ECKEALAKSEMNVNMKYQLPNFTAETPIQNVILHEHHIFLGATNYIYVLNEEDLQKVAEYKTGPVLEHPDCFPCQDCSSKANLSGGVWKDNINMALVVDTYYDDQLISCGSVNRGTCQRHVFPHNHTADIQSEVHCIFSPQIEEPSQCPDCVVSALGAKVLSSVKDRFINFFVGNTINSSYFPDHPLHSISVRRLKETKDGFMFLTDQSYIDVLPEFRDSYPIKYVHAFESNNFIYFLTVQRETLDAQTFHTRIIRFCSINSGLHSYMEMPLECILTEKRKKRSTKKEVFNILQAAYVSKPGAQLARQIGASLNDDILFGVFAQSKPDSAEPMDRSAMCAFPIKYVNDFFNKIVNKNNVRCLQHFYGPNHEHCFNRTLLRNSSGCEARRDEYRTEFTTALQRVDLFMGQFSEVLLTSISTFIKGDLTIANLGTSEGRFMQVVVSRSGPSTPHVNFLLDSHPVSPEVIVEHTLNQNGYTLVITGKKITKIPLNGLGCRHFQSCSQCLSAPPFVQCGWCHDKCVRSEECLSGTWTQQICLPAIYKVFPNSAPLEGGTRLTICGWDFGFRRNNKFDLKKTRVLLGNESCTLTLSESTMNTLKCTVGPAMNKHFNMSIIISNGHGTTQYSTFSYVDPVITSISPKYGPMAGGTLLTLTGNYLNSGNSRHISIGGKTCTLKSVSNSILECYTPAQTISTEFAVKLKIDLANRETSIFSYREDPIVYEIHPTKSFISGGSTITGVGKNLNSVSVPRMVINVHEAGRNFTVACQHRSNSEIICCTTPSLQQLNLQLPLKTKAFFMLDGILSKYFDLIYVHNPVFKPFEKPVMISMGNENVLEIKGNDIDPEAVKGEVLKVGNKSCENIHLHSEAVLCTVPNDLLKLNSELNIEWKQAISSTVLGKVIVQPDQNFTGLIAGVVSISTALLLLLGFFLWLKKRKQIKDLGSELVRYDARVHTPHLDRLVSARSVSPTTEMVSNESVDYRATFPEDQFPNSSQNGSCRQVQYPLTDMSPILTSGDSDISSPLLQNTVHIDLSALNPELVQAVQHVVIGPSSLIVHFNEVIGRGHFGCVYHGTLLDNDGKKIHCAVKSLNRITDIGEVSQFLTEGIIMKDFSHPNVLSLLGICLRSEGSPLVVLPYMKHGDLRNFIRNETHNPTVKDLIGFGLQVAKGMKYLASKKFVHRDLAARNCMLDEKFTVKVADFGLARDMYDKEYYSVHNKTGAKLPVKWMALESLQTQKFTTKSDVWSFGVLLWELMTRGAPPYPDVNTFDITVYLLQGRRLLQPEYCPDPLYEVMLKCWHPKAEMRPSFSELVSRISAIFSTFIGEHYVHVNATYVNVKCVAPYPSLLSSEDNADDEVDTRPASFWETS
In words: In vitro kinase assay I (homogeneous time-resolved fluorescence tyrosine kinase assay). The format is biochemical. The procedure, abridged:
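Biotinylated peptide (0.5 μM) phosphorylated by 0.2 nM recombinant c-Met with 50 μM MgATP, 60 min at room temperature, pH 7.4, 5% DMSO. EDTA stop; HTRF read with Eu-anti-phosphotyrosine antibody and streptavidin-APC. IC50 from 4-parameter logistic fit.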
Broadly, the IC50 is the concentration that inhibits the measured activity by half. Regarding `O=C(Nc1cccc(Cc2nn(-c3cc(F)c(F)c(F)c3)ccc2=O)c1)OCCn1ccnc1` [Example 547, 2-(1H-imidazol-1-yl)ethyl (3-{[4-oxo-1-(3,4,5-trifluorophenyl)-1,4-dihydropyridazin-3-yl]methyl}phenyl)carbamate], the IC50 is less than 100 nM.

Turning to `CCn1cnc(-c2cccc(C(C)c3nn(-c4cnn(C)c4)ccc3=O)c2)n1` (single isomer, unassigned) [Example 681, 3-{(1R or S)-1-[3-(1-ethyl-1H-1,2,4-triazol-3-yl)phenyl]ethyl}-1-(1-methyl-1H-pyrazol-4-yl)pyridazin-4(1H)-one], the IC50 was less than 100 nM.

Consider `CCOc1cnc(-c2cccc(C(OC)c3nn(-c4cnn(C)c4)ccc3=O)c2)nc1` (racemic) [Example 659, rac-3-[[3-(5-Ethoxypyrimidin-2-yl)phenyl](methoxy)methyl]-1-(1-methyl-1H-pyrazol-4-yl)pyridazin-4(1H)-one], for which the IC50 was in the range of 100 to 1000 nM. Consider `CC(C)COC(=O)Nc1cccc(Cc2nn(-c3cnn(CCN)c3)ccc2=O)c1` [Example 648, 2-methylpropyl [3-({1-[1-(2-aminoethyl)-1H-pyrazol-4-yl]-4-oxo-1,4-dihydropyridazin-3-yl}methyl)phenyl]carbamate], for which the IC50 is less than 100 nM.

`Cn1cc(-n2ccc(=O)c(Cc3cccc(-c4ncn(CCC5CCOC5)n4)c3)n2)cn1` (racemic) [Example 717, rac-1-(1-methyl-1H-pyrazol-4-yl)-3-(3-{1-[2-(tetrahydrofuran-3-yl)ethyl]-1H-1,2,4-triazol-3-yl}benzyl)pyridazin-4(1H)-one]: the IC50 was less than 100 nM.

For the compound `CCCOC(=O)Nc1cccc(Cc2nn(-c3cnn(C(C)C)c3)ccc2=O)c1` [Example 104, propyl [3-({1-[1-(1-methylethyl)-1H-pyrazol-4-yl]-4-oxo-1,4-dihydropyridazin-3-yl}methyl)phenyl]carbamate], the concentration for half-maximal inhibition (IC50) is less than 100 nM. For `CC(c1cccc(-c2ncc(O[C@@H]3CCNC[C@H]3F)cn2)c1)c1nn(-c2cnn(C)c2)ccc1=O` (single isomer, unassigned) [Example 341, 3-{(1R or S)-1-[3-(5-{[(3R or S,4R or S)-3-Fluoropiperidin-4-yl]oxy}pyrimidin-2-yl)phenyl]ethyl}-1-(1-methyl-1H-pyrazol-4-yl)pyridazin-4(1H)-one], the IC50 is less than 100 nM. Then `Cn1cc(-n2ccc(=O)c(Cc3cccc(NC(=O)OCCF)c3)n2)cn1` [Example 499, 2-fluoroethyl (3-{[1-(1-methyl-1H-pyrazol-4-yl)-4-oxo-1,4-dihydropyridazin-3-yl]methyl}phenyl)carbamate], with less than 100 nM; and `CC(c1cccc(-c2ncc(OCC(C)(C)O)cn2)c1)c1nn(-c2ccc(F)c(F)c2)ccc1=O` (single isomer, unassigned) [Example 249, 1-(3,4-difluorophenyl)-3-[(1S or R)-1-{3-[5-(2-hydroxy-2-methylpropoxy)pyrimidin-2-yl]phenyl}ethyl]pyridazin-4(1H)-one], with 100 to 1000 nM; and `C[C@H](Oc1cnc(-c2cccc(Cc3nn(-c4cnn(C)c4)ccc3=O)c2)nc1)[C@@H](C)O` (single isomer, unassigned) [Example 377], with less than 100 nM. Then `Cn1cc(-n2ccc(=O)c(Cc3ccc4ncc(OCCN5CCOCC5)cc4c3)n2)cn1` [Example 60, 1-(1-methyl-1H-pyrazol-4-yl)-3-{[3-(2-morpholin-4-ylethoxy)quinolin-6-yl]methyl}pyridazin-4(1H)-one], with 100 to 1000 nM.

Consider `Cc1nc(-c2cccc(C(C)c3nn(-c4cnn(C)c4)ccc3=O)c2)ncc1F` (single isomer, unassigned) [Example 693, 3-{(1R or S)-1-[3-(5-fluoro-4-methylpyrimidin-2-yl)phenyl]ethyl}-1}-1-(1-methyl-1H-pyrazol-4-yl)pyridazin-4(1H)-one], for which the IC50 is 100 to 1000 nM.

(Values after patent US20120264735A1 (priority 2009, published 2012).)
